pIC50: −log10 of the molar value. Calls of active or inactive are those of the source. The rule behind the calls is not given here.
Tests used:
[1] = target: T1, E3 ubiquitin-protein ligase RNF126/Serine/threonine-protein kinase TBK1 (Homo sapiens, UniProt Q9UHD2+Q9BV68); assay: Molecular glue activity at RNF126/TBK1 in HEK293T cells assessed as induction of TBK1 degradation at 1 uM by Western blot analysis; format: cell-based; settings: time 2-24 hrs
Target sequence in this assay (Q9BV68 2-311 partner limits assumed, one chain of several): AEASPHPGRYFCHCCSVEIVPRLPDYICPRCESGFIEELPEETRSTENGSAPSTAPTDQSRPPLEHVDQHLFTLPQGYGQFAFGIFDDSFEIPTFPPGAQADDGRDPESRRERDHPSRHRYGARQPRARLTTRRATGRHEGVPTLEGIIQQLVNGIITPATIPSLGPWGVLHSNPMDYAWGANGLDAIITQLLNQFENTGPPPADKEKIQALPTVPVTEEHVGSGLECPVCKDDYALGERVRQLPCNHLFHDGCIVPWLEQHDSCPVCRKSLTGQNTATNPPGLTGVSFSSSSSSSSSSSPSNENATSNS

[2] = target: T1, E3 ubiquitin-protein ligase RNF126/Serine/threonine-protein kinase TBK1; assay: Molecular glue activity at RNF126/TBK1 in human A549 cells assessed as induction of TBK1 degradation at 1 uM measured after 24 hrs by Western blot analysis; format: cell-based
Target sequence in this assay (Q9BV68 2-311 partner limits assumed, one chain of several): as above

[3] = Clearance in rat at 2 mg/kg, iv measured after 24 hrs by LC-MS/MS analysis; format: ADME, organism-based; settings: in vivo
[4] = target: T1, E3 ubiquitin-protein ligase RNF126/Serine/threonine-protein kinase TBK1; assay: Molecular glue activity at RNF126/TBK1 in HEK293T cells assessed as induction of TBK1 degradation at 1 uM incubated for 16 hrs by Western blot analysis; format: cell-based
Target sequence in this assay (Q9BV68 2-311 partner limits assumed, one chain of several): as above

Mus musculus [5] = assay: In vivo molecular glue activity at RNF126/TBK1 in PKD1 knockout ADPKD (Pkd1 flox/flox; Ksp-Cre) C57BL/6 mouse model assessed as decrease in TBK1 level in kidney at 5 mg/kg, SC administered from postnatal day 6 and measured on postnatal day 12 by Western blot analysis; format: functional, organism-based; settings: time 7.0 day
[6] = target: T1, E3 ubiquitin-protein ligase RNF126/Serine/threonine-protein kinase TBK1; assay: Molecular glue activity at RNF126/TBK1 in human A549 cells assessed as induction of TBK1 degradation at 1 uM pretreated with MLN4924 for 2 hrs followed by compound addition and measured after 16 hrs by Western blot analysis; format: cell-based
Target sequence in this assay (Q9BV68 2-311 partner limits assumed, one chain of several): as above

[7] = target: T1, E3 ubiquitin-protein ligase RNF126/Serine/threonine-protein kinase TBK1; assay: Molecular glue activity at RNF126/TBK1 in human A549 cells assessed as induction of TBK1 degradation at 1 uM measured after 6 hrs by Western blot analysis; format: cell-based
Target sequence in this assay (Q9BV68 2-311 partner limits assumed, one chain of several): as above

Kidney = assay: Ex vivo inhibition of renal cystogenesis in wild type C57BL/6 mouse kidney assessed as suppression of 8-Br-cAMP-induced cyst development at 100 nM treated for 6 days by imaging analysis; format: functional, tissue-based; settings: time 6.0 day
[8] = target: T1, E3 ubiquitin-protein ligase RNF126/Serine/threonine-protein kinase TBK1; assay: Molecular glue activity at RNF126/TBK1 in human A549 cells assessed as induction of TBK1 degradation at 1 uM incubated for 16 hrs by Western blot analysis; format: cell-based
Target sequence in this assay (Q9BV68 2-311 partner limits assumed, one chain of several): as above

[9] = target: T2, Serine/threonine-protein kinase TBK1 (Homo sapiens, UniProt Q9UHD2); assay: Inhibition of TBK1-dependent SEAP reporter gene expression in LPS-stimulated human THP1-Blue ISG cells incubated for 24 hrs by QUANTI-Blue reagent based analysis; format: cell-based
T2 sequence (Q9UHD2 whole entry): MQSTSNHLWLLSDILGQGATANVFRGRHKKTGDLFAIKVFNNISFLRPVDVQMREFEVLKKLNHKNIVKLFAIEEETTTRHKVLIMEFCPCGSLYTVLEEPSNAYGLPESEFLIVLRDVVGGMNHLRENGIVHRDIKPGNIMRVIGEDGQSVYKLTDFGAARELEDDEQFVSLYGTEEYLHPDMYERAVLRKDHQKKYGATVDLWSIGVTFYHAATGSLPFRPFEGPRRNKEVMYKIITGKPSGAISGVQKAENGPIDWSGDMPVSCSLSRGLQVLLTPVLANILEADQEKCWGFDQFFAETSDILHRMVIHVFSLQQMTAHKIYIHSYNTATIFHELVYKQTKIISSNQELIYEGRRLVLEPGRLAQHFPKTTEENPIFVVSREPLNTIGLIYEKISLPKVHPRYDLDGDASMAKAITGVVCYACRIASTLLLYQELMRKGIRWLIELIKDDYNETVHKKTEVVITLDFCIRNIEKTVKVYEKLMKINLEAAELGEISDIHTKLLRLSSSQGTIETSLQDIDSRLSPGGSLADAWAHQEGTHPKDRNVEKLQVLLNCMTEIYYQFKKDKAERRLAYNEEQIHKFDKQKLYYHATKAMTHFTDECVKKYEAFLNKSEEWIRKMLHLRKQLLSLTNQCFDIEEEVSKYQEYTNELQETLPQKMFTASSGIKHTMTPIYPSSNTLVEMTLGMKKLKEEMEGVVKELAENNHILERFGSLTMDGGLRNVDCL

Mus musculus [10] = assay: Anti-inflammatory activity in PKD1 knockout ADPKD (Pkd1 flox/flox; Ksp-Cre) C57BL/6 mouse model assessed as decrease in TNF-alpha level in kidney at 5 mg/kg, SC administered from postnatal day 6 and measured on postnatal day 12 by RT-qPCR analysis; format: functional, organism-based; settings: time 7.0 day
Mus musculus [11] = assay: Anti-inflammatory activity in PKD1 knockout ADPKD (Pkd1 flox/flox; Ksp-Cre) C57BL/6 mouse model assessed as decrease in IFN-beta level in kidney at 5 mg/kg, SC administered from postnatal day 6 and measured on postnatal day 12 by RT-qPCR analysis; format: functional, organism-based; settings: time 7.0 day
[12] = target: T1, E3 ubiquitin-protein ligase RNF126/Serine/threonine-protein kinase TBK1; assay: Molecular glue activity at RNF126/TBK1 in human A549 cells assessed as induction of TBK1 degradation at 1 uM by Western blot analysis; format: cell-based; settings: time 2-24 hrs
[13] = target: T1, E3 ubiquitin-protein ligase RNF126/Serine/threonine-protein kinase TBK1; assay: Molecular glue activity at RNF126/TBK1 in human A549 cells assessed as induction of TBK1 degradation incubated for 16 hrs by Western blot analysis; format: cell-based
[14] = Tmax in rat at 10 mg/kg, po measured after 24 hrs by LC-MS/MS analysis; format: ADME, organism-based; settings: in vivo
Mus musculus [15] = assay: Inhibition of renal cystogenesis in PKD1 knockout ADPKD (Pkd1 flox/flox; Ksp-Cre) C57BL/6 mouse model assessed as reduction in renal cystic index at 5 mg/kg, SC administered from postnatal day 6 and measured on postnatal day 12 (reference value: 20.0 +/- 1.3 %); format: functional; parameters: scale not given: the % may be the effect or the level left; settings: time 7 day
[16] = AUC (0 to infinity) in rat at 2 mg/kg, iv measured after 24 hrs by LC-MS/MS analysis; format: ADME, organism-based; settings: in vivo
MDCK = assay: Inhibition of cystogenesis in forskolin-stimulated MDCK cells assessed as reduction in cyst growth at 100 nM by imaging analysis; format: functional, cell-based; settings: Canis lupus familiaris, time 8.0 day
[17] = Half-life in rat at 10 mg/kg, po measured after 24 hrs by LC-MS/MS analysis; format: ADME, organism-based; settings: in vivo
[18] = target: T1, E3 ubiquitin-protein ligase RNF126/Serine/threonine-protein kinase TBK1; assay: Molecular glue activity at RNF126/TBK1 in HEK293T cells assessed as induction of TBK1 degradation at 1 uM pretreated with MLN4924 for 2 hrs followed by compound addition and measured after 16 hrs by Western blot analysis; format: cell-based
[19] = Cmax in rat at 2 mg/kg, iv measured after 24 hrs by LC-MS/MS analysis; format: ADME, organism-based; settings: in vivo
[20] = target: T1, E3 ubiquitin-protein ligase RNF126/Serine/threonine-protein kinase TBK1; assay: Molecular glue activity at RNF126/TBK1 in human A549 cells assessed as induction of TBK1 degradation by measuring maximal efficacy at 10 to 1000 nM incubated for 16 hrs by Western blot analysis relative to control; format: cell-based; settings: dose 10-1000 nM
[21] = target: T1, E3 ubiquitin-protein ligase RNF126/Serine/threonine-protein kinase TBK1; assay: Molecular glue activity at RNF126/TBK1 in HEK293T cells assessed as induction of TBK1 degradation by measuring maximal efficacy at 10 to 1000 nM incubated for 16 hrs by Western blot analysis relative to control; format: cell-based; settings: dose 10-1000 nM
Mus musculus [22] = assay: In vivo molecular glue activity at RNF126/TBK1 in PKD1 knockout ADPKD (Pkd1 flox/flox; Ksp-Cre) C57BL/6 mouse model assessed as decrease in phosphorylated STING level in kidney at 5 mg/kg, SC administered from postnatal day 6 and measured on postnatal day 12 by Western blot analysis; format: functional, organism-based; settings: time 7.0 day

Activity [1]: Time-dependent-effect
clearance [3]: 44.9 mL/min/kg
Activity [4]: Active
Activity [8]: Active
pIC50 [9]: 7.11
Activity [12]: Time-dependent-effect
Activity [13]: Dose-dependent-effect
DC50 [13]: 360 nM
Tmax [14]: 21.6 min
AUC(0-inf) [16]: 1.03 µM·h
half-life [17]: 73.2 min
Cmax [19]: 1790 nM
Emax [20]: 71.9%
Emax [21]: 91.9%
Compound: COc1ccc(C(=O)/C=C/C(=O)N2CCN(CC3CCN(Cc4cccc(Nc5ncc6ccn(CCCNC(=O)C7CCC7)c6n5)c4)CC3)CC2)cc1
Activity [2]: Active; Maximal Tbk1 Degradation Observed
Activity (Mus musculus [5]): Active
Activity [6]: Active; Degradation In Independent Of Crl-Related Pathway
Activity [7]: Active; Significant Reduction In Tbk1 Level Observed
inhibition (Kidney): Active
Activity (Mus musculus [10]): Active
Activity (Mus musculus [11]): Active
Activity (Mus musculus [15]): 14%
inhibition (MDCK): Time-dependent-effect; Effect Observed Starting On Day 6
Activity [18]: Active; Degradation In Independent Of Crl-Related Pathway
Activity (Mus musculus [22]): Active

Source: ChEMBL document CHEMBL6182930, “Discovery of TBK1Molecular Glue Degraders as a Potential Strategy for the Treatment of Autosomal Dominant Polycystic Kidney Disease (ADPKD)” (J Med Chem, 2025)
